For one assay, the target named is T1, guinea pig ileum (Cavia porcellus, UniProt Q2NNR5).
T1 construct: from tissue; host or cells: guinea pig ileum segments
T1 sequence (Q2NNR5 1-340): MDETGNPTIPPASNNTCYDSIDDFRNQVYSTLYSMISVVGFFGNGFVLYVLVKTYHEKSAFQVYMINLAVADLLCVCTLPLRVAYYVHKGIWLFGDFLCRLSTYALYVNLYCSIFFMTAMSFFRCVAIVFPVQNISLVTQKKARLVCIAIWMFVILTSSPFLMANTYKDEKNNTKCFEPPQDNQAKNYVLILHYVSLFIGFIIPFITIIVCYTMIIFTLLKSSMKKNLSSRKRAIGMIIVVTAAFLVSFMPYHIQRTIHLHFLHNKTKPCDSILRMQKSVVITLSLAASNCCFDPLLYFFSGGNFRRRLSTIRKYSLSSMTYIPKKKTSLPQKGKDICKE
Nature of the assay: LTD4 antagonism in guinea pig ileum (contraction). As to the method: Fresh segments of guinea pig ileum were suspended in 2 ml. tissue baths containing oxygenated modified Tyrodes solution. […] The ileum segments were washed and rested between exposures to agonist. Following this, the tissues were incubated with a single concentration of test compound and the agonist dose-response procedure was repeated. The dose ration is a measure of the antagonist's ability to shift the agonist dose-response curve to the right. It is derived as the concentration of agonist necessary to reach a given response level in the present (A') versus the absence (A) of antagonist. For example, if the test concentration of compound had no effect on the agonist-induced response (A'=A) the dose-ratio would approximate 1. […] One dose-ratio value is determined for each strip of ileum used to test antagonist. […] Schild analysis examines the linearity of the function described by the dose-ratios written as log (A'/A) versus antagonist concentration. If linearity is confirmed and the slope approximates -1, inhibition is considered to be competitive. […] This value is considered to be a measure of the affinity of the competitive antagonist.

The next assay concerns human neutrophils. Nature of the assay: Modified Boyden chamber chemotaxis (LTB4, human neutrophils). Type of assay: cell-based. The settings on record: Neutrophil. As to the method:
Human neutrophils were isolated from citrated peripheral blood using standard techniques of dextran sedimentation, followed by centrifugation on Histopaque® sterile solution (Sigma) or Ficoll-paque® (Pharmacia) and hypotonic lysis of erythrocytes. A final cell suspension of 3.4×10^6 neutrophils/ml of HEPES-buffered Hanks balanced salt solution (HBSS, pH 7.3) was added to the upper well (0.8 ml) of a modified Boyden chamber (blind well). The lower well (0.2 ml), separated by a polycarbonate membrane (Nuleopore Corp.), contained HBSS or 3×10^-8 M LTB4 in the presence of absence of test compound. Following a 90 minute incubation at 37° C. in 5% CO2 -95% air, cells from the lower well were lysed and nuclei counted in a Model S-Plus-IV Coulter Counter. Percent inhibition was calculated from cell counts corrected for random migration by subtracting the mean of the HBSS control.

A further assay has as its target T2, LTD4 receptor (Cavia porcellus, UniProt Q2NNR5).
T2 construct: from tissue; host or cells: lung membranes of male Hartley guinea pigs
T2 sequence (Q2NNR5 1-340): T1 sequence (Q2NNR5 1-340)
The assay is described as follows: LTD4 receptor binding assay using guinea pig lung membrane preparations. As to the method: MEMBRANE PREPARATIONS: For each membrane preparation, 10-11 male Hartley guinea pigs, weighing less than 350 gm, were sacrificed by guillotine. The lungs were rapidly removed and placed in ice-cold 50 mM Trisma 7.0 buffer. After all the lungs were collected, each was probed free of bronchial tissue to at least the level of tertiary branching as observed through a dissecting lamp. The tissue was minced with a razor blade on a damp paper towel and placed into fresh ice-cold Trisma 7.0 buffer. When all the tissues had been processed, they were pooled, drained and weighed. Nine volumes of cold buffer were added and the tissue was polytroned for 6-10 second bursts with a 1 minute cool down period in an ice bath between each burst. The homogenate was filtered through a gauze pad and centrifuged at 1085× g for 15 minutes at 4° C. Supernatants were saved and centrifuged at 40,000× g for 20 minutes at 4° C. This time, supernatants were discarded and the pellets were resuspended in 30-35 ml fresh Trisma 7.0 buffer by 1-10 second bursts with the polytron. The materials were centrifuged again at 40,000× g. Supernatants were again discarded. Each pellet was resuspended again with approximately 7 ml buffer. All this material was pooled into a 100 ml polypropylene container and stirred with a magnetic stirring bar. The tubes were rinsed with small amounts of buffer and the rinse was added to the membrane preparation. The homogenized membranes were aliquoted into 1.5 ml microfuge tubes and frozen at -70° C. Three aliquots were submitted for protein determinations by FPB (fluorescamine protein binding) assay.
Unless otherwise indicated, all binding experiments were performed in a final incubation volume of 250 μl. […] Both materials were received in solutions. […] Both solutions were brought to appropriate assay concentrations by dilution in assay buffer consisting of 50 mM Trisma 7.4 with 5 mM L-cysteine and 20 mM CaCl2. Membranes were also diluted with this assay buffer. […] Diluent was added to all other appropriate control tubes. Incubations were conducted for 30 minutes at 25° C. in a shaking water bath. Termination of the reaction was achieved by pouring the incubate over 2.5 cm Whatman GF/C filters soaked in assay buffer and set over the ports of Millipore filter vacuum manifolds. Filters were rinsed with 4 ml ice cold assay buffer 3 times. The filters were removed, placed in 10 ml Aquasol scintillation cocktail and allowed to cool in the dark for 2 hours prior to counting. All samples were corrected for background and isotope decay before converting DPM determination to mass.
These values were logit-transformed and linear regression was performed on the dose-response data. All dose-response sets used to calculate IC50 values contained data from 3-6 compound concentrations. […] IC50 values were calculated from the regression equation for the line.
male guinea pig lung homogenate which was aliquoted and stored at
-70° C. The particular preparation used to test the compounds of
Protein concentrations in these assays were adjusted
to provide aproximately 0.1 nM receptor in the presence of lnM ^3
HLTD4. Incubation was conducted for 30 min.
at 24° C. and filtration methods were used to separate bound from
tested were intially solubilized in DMSO. Each compound was evaluated at
dose of 10 μM (10^-5 M) in triplicate in 2 separate assays. The

Another assay addresses T3, LTB4 receptor (Homo sapiens, UniProt Q15722).
T3 construct: Neutrophils were purified from venous blood of normal human donors; endogenous in cells; host or cells: purified human blood neutrophils (intact cells)
The assay is described as follows: LTB4 receptor binding assay ((3H) LTB4, human neutrophils). As to the method:
Neutrophils (4-6×10^6) in 1 ml Hanks' balanced salt solution containing 10 mM HEPES buffer (HBSS), pH 7.4 and 30 μM nordihydroguaiaretic acid were incubated with 0.6×10^-9 M (^3 H) LTB4 in the presence or absence of test compounds. The incubation was carried out at 0° C. for 45 minutes and terminated by adding 5 ml of ice-cold HBSS followed by rapid filtration of incubation mixture under vacuum through GF/C glass fiber filters. The filters were further washed with 10 ml HBSS and radioactivity was determined. Specific binding was defined as the difference between total binding and nonspecific binding which was not displaced by 10^-7 M unlabeled LTB4. All data refer to specific binding.

Setting [1] is: relative to Compound III where --OCH3 is replaced with --OH.

Like-named read-outs stand apart in the source and are kept apart here. Some results are limits rather than exact numbers.

T3 sequence (Q15722 whole entry): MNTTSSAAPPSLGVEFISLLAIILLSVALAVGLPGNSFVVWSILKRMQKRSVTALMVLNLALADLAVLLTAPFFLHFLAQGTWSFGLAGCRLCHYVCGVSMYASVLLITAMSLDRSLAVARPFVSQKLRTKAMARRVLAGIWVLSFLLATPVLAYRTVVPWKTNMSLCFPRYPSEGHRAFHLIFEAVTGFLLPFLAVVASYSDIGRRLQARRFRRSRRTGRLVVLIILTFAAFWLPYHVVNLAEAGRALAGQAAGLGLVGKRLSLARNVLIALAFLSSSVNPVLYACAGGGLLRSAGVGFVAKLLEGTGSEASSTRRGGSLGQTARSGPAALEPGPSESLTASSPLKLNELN

A word on the IC50: it is the concentration needed to halve the response being measured. Read a high IC50 as weaker potency. Regarding `CCCc1c(OCCCOc2ccc(C(C)=O)c(OC)c2CCC)ccc2c1OC(C(=O)O)CC2` (stereo not drawn) [Example 1, 7-[3-(4-acetyl-3-methoxy-2-propylphenoxy)propoxy]-3,4-dihydro-8-propyl-2H-1-benzopyran-2-carboxylic acid], at guinea pig ileum (read-out: Guinea Pig Ileum Contraction pA2 (converted)), the Kb was not below 0.316 µM. In addition, the “less active as an LTD4 antagonist in the guinea pig ileum smooth muscle contraction test” value on guinea pig ileum (setting [1]) was “at least 10 ×”. In addition, in the assay on human neutrophils, the IC50 came out at 3 µM. In addition, the “Receptor Binding LTD4 IC50” value on LTD4 receptor (Table 1, results are from Table 3, 10^-5 M) is “Inactive”. Moreover, the inhibition at 10 µM on LTD4 receptor (read-out: LTD4 Receptor Binding Activity) is less than 45%; on LTD4 receptor (read-out: LTD4 Receptor Binding Percent Inhibition, Test #1, triplicate, 30 min, 24° C.), 4.07%; on LTD4 receptor (read-out: LTD4 Receptor Binding Percent Inhibition, Test #2, triplicate, 30 min, 24° C.), 16.4%. Also, the inhibition at 0.3 µM at LTB4 receptor (0.75 h, read-out: LTB4 Receptor Binding (percent at stated concentration)) amounted to 50%. Further, on LTB4 receptor (setting [1]), the “more potent than the --OH compound in LTB4 receptor binding” value is on record as “about 5 ×”.

These data come from patent US4889871A, “Alkoxy-substituted dihydrobenzopyran-2-carboxylate derivatives” (G. D. Searle & Co., priority 1988, dated 1989).
